Test results as given in patent publication US9828360B2 (Array BioPharma Inc., priority 2012, dated 2017).

How the values were obtained:
Assay in all cases: KinaseProfiler off-target kinase profiling
Format in all cases: biochemical
Settings in all cases: 10 μM, ATP near Km
Ron = target: T1, Ron (Homo sapiens, UniProt Q04912)
T1 construct: purchased Millipore, Inc. (KinaseProfiler service)
Method in brief: (§1)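 Each kinase is assayed with ATP at roughly its own Km, and the compound is added at 10 μM. Two replicates are run; their average is expressed relative to untreated control (POC).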

EphB1 = target: T2, EphB1 (Homo sapiens, UniProt P54762)
T2 construct: purchased Millipore, Inc. (KinaseProfiler service)
Method in brief: as §1

KIT = target: T3, KIT (Homo sapiens, UniProt P10721)
T3 construct: purchased Millipore, Inc. (KinaseProfiler service)
Method in brief: as §1

CHK1 = target: T4, CHK1 (Homo sapiens, UniProt O14757)
T4 construct: purchased Millipore, Inc. (KinaseProfiler service)
Method in brief: as §1

PKCeta = target: T5, PKCeta (Homo sapiens, UniProt P24723)
T5 construct: purchased Millipore, Inc. (KinaseProfiler service)
Method in brief: as §1

CAMK1 = target: T6, CAMK1 (Homo sapiens, UniProt Q14012)
T6 construct: purchased Millipore, Inc. (KinaseProfiler service)
Method in brief: as §1

EphA4 = target: T7, EphA4 (Homo sapiens, UniProt P54764)
T7 construct: purchased Millipore, Inc. (KinaseProfiler service)
Method in brief: as §1

Abl-P = target: T8, Abl-P (Homo sapiens, UniProt P00519)
T8 construct: purchased Millipore, Inc. (KinaseProfiler service)
Method in brief: as §1

CSK = target: T9, CSK (Homo sapiens, UniProt P41240)
T9 construct: purchased Millipore, Inc. (KinaseProfiler service)
Method in brief: as §1

Pim-2 = target: T10, Pim-2 (Homo sapiens, UniProt Q9P1W9)
T10 construct: purchased Millipore, Inc. (KinaseProfiler service)
Method in brief: as §1

TBK1 = target: T11, TBK1 (Homo sapiens, UniProt Q9UHD2)
T11 construct: purchased Millipore, Inc. (KinaseProfiler service)
Method in brief: as §1

CDK5/p25 = target: T12, CDK5/p25 (Homo sapiens, UniProt Q00535)
T12 construct: purchased Millipore, Inc. (KinaseProfiler service)
Method in brief: as §1

ALK = target: T13, ALK (Homo sapiens, UniProt Q9UM73)
T13 construct: purchased Millipore, Inc. (KinaseProfiler service)
Method in brief: as §1

AKT3 = target: T14, AKT3 (Homo sapiens, UniProt Q9Y243)
T14 construct: purchased Millipore, Inc. (KinaseProfiler service)
Method in brief: as §1

Haspin = target: T15, Haspin (Homo sapiens, UniProt Q8TF76)
T15 construct: purchased Millipore, Inc. (KinaseProfiler service)
Method in brief: as §1

MINK = target: T16, MINK (Homo sapiens, UniProt Q8N4C8)
T16 construct: purchased Millipore, Inc. (KinaseProfiler service)
Method in brief: as §1

RIPK2 = target: T17, RIPK2 (Homo sapiens, UniProt O43353)
T17 construct: purchased Millipore, Inc. (KinaseProfiler service)
Method in brief: as §1

VRK2 = target: T18, VRK2 (Homo sapiens, UniProt Q86Y07)
T18 construct: purchased Millipore, Inc. (KinaseProfiler service)
Method in brief: as §1

WNK2 = target: T19, WNK2 (Homo sapiens, UniProt Q9Y3S1)
T19 construct: purchased Millipore, Inc. (KinaseProfiler service)
Method in brief: as §1

PKCzeta = target: T20, PKCzeta (Homo sapiens, UniProt Q05513)
T20 construct: purchased Millipore, Inc. (KinaseProfiler service)
Method in brief: as §1

NEK3 = target: T21, NEK3 (Homo sapiens, UniProt P51956)
T21 construct: purchased Millipore, Inc. (KinaseProfiler service)
Method in brief: as §1

CDK5/p35 = target: T22, CDK5/p35 (Homo sapiens, UniProt Q00535)
T22 construct: purchased Millipore, Inc. (KinaseProfiler service)
Method in brief: as §1

CK1delta = target: T23, CK1delta (Homo sapiens, UniProt P48730)
T23 construct: purchased Millipore, Inc. (KinaseProfiler service)
Method in brief: as §1

Hck = target: T24, Hck (Homo sapiens, UniProt P08631)
T24 construct: purchased Millipore, Inc. (KinaseProfiler service)
Method in brief: as §1

CK1gamma2 = target: T25, CK1gamma2 (Homo sapiens, UniProt P78368)
T25 construct: purchased Millipore, Inc. (KinaseProfiler service)
Method in brief: as §1

SIK = target: T26, SIK (Homo sapiens, UniProt P57059)
T26 construct: purchased Millipore, Inc. (KinaseProfiler service)
Method in brief: as §1

p38beta = target: T27, p38beta (Homo sapiens, UniProt Q15759)
T27 construct: purchased Millipore, Inc. (KinaseProfiler service)
Method in brief: as §1

BrSK1 = target: T28, BrSK1 (Homo sapiens, UniProt Q8TDC3)
T28 construct: purchased Millipore, Inc. (KinaseProfiler service)
Method in brief: as §1

Fms = target: T29, Fms (Homo sapiens, UniProt P07333)
T29 construct: purchased Millipore, Inc. (KinaseProfiler service)
Method in brief: as §1

MKK7beta = target: T30, MKK7beta (Homo sapiens, UniProt O14733)
T30 construct: purchased Millipore, Inc. (KinaseProfiler service)
Method in brief: as §1

TAO1 = target: T31, TAO1 (Homo sapiens, UniProt Q7L7X3)
T31 construct: purchased Millipore, Inc. (KinaseProfiler service)
Method in brief: as §1

Rsk1 = target: T32, Rsk1 (Homo sapiens, UniProt Q15418)
T32 construct: purchased Millipore, Inc. (KinaseProfiler service)
Method in brief: as §1

Bmx = target: T33, Bmx (Homo sapiens, UniProt P51813)
T33 construct: purchased Millipore, Inc. (KinaseProfiler service)
Method in brief: as §1

T28 sequence (Q8TDC3 whole entry): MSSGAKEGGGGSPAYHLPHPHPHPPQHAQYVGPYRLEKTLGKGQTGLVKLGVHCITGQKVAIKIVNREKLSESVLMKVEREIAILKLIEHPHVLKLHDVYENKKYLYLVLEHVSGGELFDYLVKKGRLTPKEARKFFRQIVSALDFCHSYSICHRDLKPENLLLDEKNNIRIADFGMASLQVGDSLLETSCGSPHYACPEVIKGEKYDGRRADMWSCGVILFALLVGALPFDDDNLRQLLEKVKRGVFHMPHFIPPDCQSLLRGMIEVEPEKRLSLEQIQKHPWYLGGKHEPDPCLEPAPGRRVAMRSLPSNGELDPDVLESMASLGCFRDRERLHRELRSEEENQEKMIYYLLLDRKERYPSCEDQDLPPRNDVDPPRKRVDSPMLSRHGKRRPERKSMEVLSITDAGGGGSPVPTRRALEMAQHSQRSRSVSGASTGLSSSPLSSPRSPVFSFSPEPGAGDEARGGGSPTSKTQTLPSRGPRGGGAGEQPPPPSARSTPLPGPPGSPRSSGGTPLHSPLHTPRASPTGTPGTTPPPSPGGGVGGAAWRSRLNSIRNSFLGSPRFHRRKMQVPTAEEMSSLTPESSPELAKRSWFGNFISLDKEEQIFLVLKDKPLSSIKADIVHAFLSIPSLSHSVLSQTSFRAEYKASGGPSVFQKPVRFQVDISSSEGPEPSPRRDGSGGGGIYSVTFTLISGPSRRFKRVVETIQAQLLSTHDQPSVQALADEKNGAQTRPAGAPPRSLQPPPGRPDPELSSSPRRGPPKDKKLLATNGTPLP
T13 sequence (Q9UM73 19-1620): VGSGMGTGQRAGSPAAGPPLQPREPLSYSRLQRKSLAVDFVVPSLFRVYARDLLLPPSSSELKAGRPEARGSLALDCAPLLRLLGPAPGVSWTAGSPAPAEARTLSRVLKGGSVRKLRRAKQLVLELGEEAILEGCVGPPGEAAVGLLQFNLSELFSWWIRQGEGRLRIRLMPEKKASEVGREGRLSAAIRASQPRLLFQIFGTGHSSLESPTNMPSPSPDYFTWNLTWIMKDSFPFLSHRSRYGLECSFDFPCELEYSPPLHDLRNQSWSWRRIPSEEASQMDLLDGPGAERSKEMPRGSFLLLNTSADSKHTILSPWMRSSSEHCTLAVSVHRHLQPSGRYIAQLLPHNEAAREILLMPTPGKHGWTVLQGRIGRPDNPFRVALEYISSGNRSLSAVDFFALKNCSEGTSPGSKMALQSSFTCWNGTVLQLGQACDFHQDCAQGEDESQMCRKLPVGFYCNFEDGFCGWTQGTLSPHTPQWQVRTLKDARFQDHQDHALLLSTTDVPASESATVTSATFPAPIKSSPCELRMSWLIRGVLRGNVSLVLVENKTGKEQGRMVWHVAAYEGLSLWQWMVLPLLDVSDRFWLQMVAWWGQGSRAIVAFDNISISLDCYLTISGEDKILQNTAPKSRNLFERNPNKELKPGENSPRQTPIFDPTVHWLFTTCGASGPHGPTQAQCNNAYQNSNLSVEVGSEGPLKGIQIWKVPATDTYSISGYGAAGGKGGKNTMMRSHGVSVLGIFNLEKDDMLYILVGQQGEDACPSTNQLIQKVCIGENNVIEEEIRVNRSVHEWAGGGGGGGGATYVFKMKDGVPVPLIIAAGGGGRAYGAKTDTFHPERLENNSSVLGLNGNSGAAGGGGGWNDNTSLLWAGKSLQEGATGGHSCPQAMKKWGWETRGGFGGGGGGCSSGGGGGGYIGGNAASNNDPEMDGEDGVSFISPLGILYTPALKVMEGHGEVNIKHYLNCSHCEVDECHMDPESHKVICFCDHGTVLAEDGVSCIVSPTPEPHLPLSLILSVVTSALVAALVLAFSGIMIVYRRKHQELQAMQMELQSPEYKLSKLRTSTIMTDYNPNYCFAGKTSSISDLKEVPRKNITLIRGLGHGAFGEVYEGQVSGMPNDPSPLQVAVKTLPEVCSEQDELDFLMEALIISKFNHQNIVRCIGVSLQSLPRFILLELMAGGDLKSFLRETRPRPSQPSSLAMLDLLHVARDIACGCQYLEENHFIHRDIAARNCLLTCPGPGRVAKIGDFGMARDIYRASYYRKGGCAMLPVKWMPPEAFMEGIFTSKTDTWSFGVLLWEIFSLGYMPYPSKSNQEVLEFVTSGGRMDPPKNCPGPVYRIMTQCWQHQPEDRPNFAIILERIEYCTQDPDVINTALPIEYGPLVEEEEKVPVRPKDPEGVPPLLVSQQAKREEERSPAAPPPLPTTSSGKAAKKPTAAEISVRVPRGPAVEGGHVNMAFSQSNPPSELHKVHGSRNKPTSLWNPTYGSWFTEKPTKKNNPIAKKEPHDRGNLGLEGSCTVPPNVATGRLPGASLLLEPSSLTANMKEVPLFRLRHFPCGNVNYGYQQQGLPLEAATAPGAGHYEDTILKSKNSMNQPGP
T14 sequence (Q9Y243 whole entry): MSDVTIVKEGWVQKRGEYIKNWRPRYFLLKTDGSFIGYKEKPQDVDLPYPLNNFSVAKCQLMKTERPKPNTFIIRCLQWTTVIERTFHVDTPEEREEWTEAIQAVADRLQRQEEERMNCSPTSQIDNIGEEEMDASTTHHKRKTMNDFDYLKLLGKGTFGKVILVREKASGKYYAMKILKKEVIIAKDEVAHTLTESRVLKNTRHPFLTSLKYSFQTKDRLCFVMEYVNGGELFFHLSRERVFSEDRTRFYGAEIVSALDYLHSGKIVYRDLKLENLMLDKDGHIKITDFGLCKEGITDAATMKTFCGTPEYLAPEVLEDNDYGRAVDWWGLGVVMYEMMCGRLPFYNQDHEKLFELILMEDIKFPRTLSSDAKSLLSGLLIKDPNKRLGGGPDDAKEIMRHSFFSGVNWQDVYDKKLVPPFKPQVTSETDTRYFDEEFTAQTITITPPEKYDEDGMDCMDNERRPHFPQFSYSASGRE
T25 sequence (P78368 whole entry): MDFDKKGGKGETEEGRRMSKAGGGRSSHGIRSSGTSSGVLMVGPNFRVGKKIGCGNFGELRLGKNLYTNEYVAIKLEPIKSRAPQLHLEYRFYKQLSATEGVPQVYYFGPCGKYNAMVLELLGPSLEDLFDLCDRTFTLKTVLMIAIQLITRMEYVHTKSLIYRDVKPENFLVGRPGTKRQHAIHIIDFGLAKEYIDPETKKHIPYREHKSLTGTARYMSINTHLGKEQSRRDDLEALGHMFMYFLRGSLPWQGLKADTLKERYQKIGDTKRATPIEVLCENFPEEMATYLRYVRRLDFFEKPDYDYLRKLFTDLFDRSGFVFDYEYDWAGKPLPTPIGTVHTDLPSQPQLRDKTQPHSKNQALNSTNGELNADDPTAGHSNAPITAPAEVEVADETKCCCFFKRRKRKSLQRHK
T29 sequence (P07333 20-972): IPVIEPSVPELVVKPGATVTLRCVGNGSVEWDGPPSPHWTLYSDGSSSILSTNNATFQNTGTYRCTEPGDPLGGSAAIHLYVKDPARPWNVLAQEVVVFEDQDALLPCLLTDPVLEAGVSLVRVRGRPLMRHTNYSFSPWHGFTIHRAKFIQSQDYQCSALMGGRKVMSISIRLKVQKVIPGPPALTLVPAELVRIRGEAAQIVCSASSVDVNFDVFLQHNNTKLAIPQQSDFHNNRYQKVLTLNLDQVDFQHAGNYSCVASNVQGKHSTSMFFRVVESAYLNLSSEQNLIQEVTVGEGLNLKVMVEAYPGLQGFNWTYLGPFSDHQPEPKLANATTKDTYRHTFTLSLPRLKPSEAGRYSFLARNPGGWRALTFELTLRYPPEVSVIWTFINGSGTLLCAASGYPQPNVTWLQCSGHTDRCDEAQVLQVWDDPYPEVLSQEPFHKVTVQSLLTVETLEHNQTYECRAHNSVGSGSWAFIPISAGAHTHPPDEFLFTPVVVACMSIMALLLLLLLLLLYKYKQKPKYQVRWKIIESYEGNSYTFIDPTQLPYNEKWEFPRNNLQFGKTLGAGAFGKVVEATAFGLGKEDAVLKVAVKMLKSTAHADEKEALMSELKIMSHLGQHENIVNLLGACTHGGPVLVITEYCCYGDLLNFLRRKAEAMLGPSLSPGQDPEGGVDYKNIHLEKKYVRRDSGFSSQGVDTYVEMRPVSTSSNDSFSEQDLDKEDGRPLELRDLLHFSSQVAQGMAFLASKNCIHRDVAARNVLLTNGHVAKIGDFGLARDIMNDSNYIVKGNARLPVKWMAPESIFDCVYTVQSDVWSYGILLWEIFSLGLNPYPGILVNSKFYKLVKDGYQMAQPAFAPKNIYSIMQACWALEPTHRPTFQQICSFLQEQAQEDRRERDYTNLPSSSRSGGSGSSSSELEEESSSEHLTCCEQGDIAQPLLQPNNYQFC
T24 sequence (P08631 whole entry): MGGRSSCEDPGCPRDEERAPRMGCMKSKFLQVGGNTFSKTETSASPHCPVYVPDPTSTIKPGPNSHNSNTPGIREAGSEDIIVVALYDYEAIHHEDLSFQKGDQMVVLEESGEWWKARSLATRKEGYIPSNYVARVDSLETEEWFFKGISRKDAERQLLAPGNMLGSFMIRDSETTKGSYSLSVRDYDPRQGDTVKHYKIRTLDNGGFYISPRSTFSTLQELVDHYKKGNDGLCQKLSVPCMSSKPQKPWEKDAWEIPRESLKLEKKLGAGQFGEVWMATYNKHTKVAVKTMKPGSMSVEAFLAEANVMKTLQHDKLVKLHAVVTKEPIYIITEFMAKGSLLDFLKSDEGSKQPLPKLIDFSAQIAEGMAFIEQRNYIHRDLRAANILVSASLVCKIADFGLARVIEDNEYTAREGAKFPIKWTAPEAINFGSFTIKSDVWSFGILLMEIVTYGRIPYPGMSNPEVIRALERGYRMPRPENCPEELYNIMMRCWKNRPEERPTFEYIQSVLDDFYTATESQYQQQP
T10 sequence (Q9P1W9 whole entry): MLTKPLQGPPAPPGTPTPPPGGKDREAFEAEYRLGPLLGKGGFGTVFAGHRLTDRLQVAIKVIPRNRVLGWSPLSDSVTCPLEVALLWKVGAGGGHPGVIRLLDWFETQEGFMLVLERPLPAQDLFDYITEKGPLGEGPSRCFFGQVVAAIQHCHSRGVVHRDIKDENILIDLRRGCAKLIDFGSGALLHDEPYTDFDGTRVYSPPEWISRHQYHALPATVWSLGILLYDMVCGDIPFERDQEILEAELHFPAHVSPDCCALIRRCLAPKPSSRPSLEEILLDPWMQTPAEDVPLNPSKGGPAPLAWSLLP

Avg POC (Ron): 105.5% of control
Avg POC (EphB1): 107.5% of control
Avg POC (KIT): 100% of control
Avg POC (CHK1): 110% of control
Avg POC (PKCeta): 93% of control
Avg POC (CAMK1): 104.5% of control
Avg POC (EphA4): 105.5% of control
Avg POC (Abl-P): 147.5% of control
Avg POC (CSK): 108% of control
Avg POC (Pim-2): 104% of control
Avg POC (TBK1): 96.5% of control
Avg POC (CDK5/p25): 110.5% of control
Avg POC (ALK): 125% of control
Avg POC (AKT3): 106.5% of control
Avg POC (Haspin): 117% of control
Avg POC (MINK): 117% of control
Avg POC (RIPK2): 108% of control
Avg POC (VRK2): 98% of control
Avg POC (WNK2): 92.5% of control
Avg POC (PKCzeta): 108% of control
Avg POC (NEK3): 129% of control
Avg POC (CDK5/p35): 109.5% of control
Avg POC (CK1delta): 111.5% of control
Avg POC (Hck): 115.5% of control
Avg POC (CK1gamma2): 94.5% of control
Avg POC (SIK): 111% of control
Avg POC (p38beta): 115% of control
Avg POC (BrSK1): 123.5% of control
Avg POC (Fms): 96% of control
Avg POC (MKK7beta): 98% of control
Avg POC (TAO1): 101% of control
Avg POC (Rsk1): 121% of control
Avg POC (Bmx): 122% of control
SMILES: COCCN1C[C@@H](NC(=O)Nc2sc(C(C)C)nc2-c2ccccc2)[C@H](c2ccccc2)C1 [Example 48, 1-(2-isopropyl-4-phenylthiazol-5-yl)-3-((3S,4R)-1-(2-methoxyethyl)-4-phenylpyrrolidin-3-yl)urea]
